Experimental data reported in ChEMBL document CHEMBL1201861, “Genomics of Drug Sensitity in Cancer screening data, Wellcome Trust Sanger Institute”.

test system: NCI-H446; test: cells; type: functional, cell-based, Homo sapiens; details: Homo sapiens, NCI-H446;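 note: growth inhibition of NCI-H446 cells determined by a cell viability assay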
Description: SANGER: Inhibition of human NCI-H446 cell growth in a cell viability assay.

| SMILES | IC50 |
| --- | --- |
| COc1cc2ncn(-c3cc(OCc4ccccc4S(C)(=O)=O)c(C#N)s3)c2cc1OC [GSK-319347A] | > 5 µM |

test system: NCI-H69; test: cells; type: functional, cell-based, Homo sapiens; details: Homo sapiens, NCI-H69;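 note: growth inhibition of the cell line, read out with a cell viability assay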
Description: SANGER: Inhibition of human NCI-H69 cell growth in a cell viability assay.

| SMILES | IC50 |
| --- | --- |
| COc1cc2ncn(-c3cc(OCc4ccccc4S(C)(=O)=O)c(C#N)s3)c2cc1OC [GSK-319347A] | > 5 µM |

test system: SNU-5; test: cells; type: functional, cell-based, Homo sapiens; details: Homo sapiens, SNU-5;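 note: cell viability readout used to measure growth inhibition in human NCI-SNU-5 cells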
Description: SANGER: Inhibition of human NCI-SNU-5 cell growth in a cell viability assay.

| SMILES | IC50 |
| --- | --- |
| COc1cc2ncn(-c3cc(OCc4ccccc4S(C)(=O)=O)c(C#N)s3)c2cc1OC [GSK-319347A] | > 5 µM |

test system: NH-12; test: cells; type: functional, cell-based, Homo sapiens; details: Homo sapiens, NH-12;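 note: growth inhibition of NH-12 cells, read out with a cell viability assay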
Description: SANGER: Inhibition of human NH-12 cell growth in a cell viability assay.

| SMILES | IC50 |
| --- | --- |
| COc1cc2ncn(-c3cc(OCc4ccccc4S(C)(=O)=O)c(C#N)s3)c2cc1OC [GSK-319347A] | > 5 µM |

test system: QIMR-WIL; test: cells; type: functional, cell-based, Homo sapiens; details: Homo sapiens, QIMR-WIL;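 note: growth inhibition of QIMR-WIL cells, read out with a cell viability assay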
Description: SANGER: Inhibition of human QIMR-WIL cell growth in a cell viability assay.

| SMILES | IC50 |
| --- | --- |
| COc1cc2ncn(-c3cc(OCc4ccccc4S(C)(=O)=O)c(C#N)s3)c2cc1OC [GSK-319347A] | > 5 µM |

test system: RS4-11; test: cells; type: functional, cell-based, Homo sapiens; details: Homo sapiens, RS4-11;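 note: growth inhibition of RS4-11 cells, read out by a cell viability assay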
Description: SANGER: Inhibition of human RS4-11 cell growth in a cell viability assay.

| SMILES | IC50 |
| --- | --- |
| COc1cc2ncn(-c3cc(OCc4ccccc4S(C)(=O)=O)c(C#N)s3)c2cc1OC [GSK-319347A] | > 5 µM |

test system: RXF 393; test: cells; type: functional, cell-based, Homo sapiens; details: Homo sapiens, RXF 393;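 note: growth inhibition of human RXF 393 cells, read out with a cell viability assay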
Description: SANGER: Inhibition of human RXF393 cell growth in a cell viability assay.

| SMILES | IC50 |
| --- | --- |
| COc1cc2ncn(-c3cc(OCc4ccccc4S(C)(=O)=O)c(C#N)s3)c2cc1OC [GSK-319347A] | > 5 µM |

test system: Ramos-2G6-4C10; test: cells; type: functional, cell-based, Homo sapiens; details: Homo sapiens, Ramos-2G6-4C10;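 note: growth inhibition of the cell line, measured by a cell viability read-out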
Description: SANGER: Inhibition of human Ramos-2G6-4C10 cell growth in a cell viability assay.

| SMILES | IC50 |
| --- | --- |
| COc1cc2ncn(-c3cc(OCc4ccccc4S(C)(=O)=O)c(C#N)s3)c2cc1OC [GSK-319347A] | > 5 µM |

test system: SCH; test: cells; type: functional, cell-based, Homo sapiens; details: Homo sapiens, SCH;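 note: growth inhibition of human SCH cells, read out in a cell viability assay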
Description: SANGER: Inhibition of human SCH cell growth in a cell viability assay.

| SMILES | IC50 |
| --- | --- |
| COc1cc2ncn(-c3cc(OCc4ccccc4S(C)(=O)=O)c(C#N)s3)c2cc1OC [GSK-319347A] | > 5 µM |

test system: SJSA-1; test: cells; type: functional, cell-based, Homo sapiens; details: Homo sapiens, SJSA-1;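 note: growth inhibition of human SJSA-1 cells, read out through a cell viability measurement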
Description: SANGER: Inhibition of human SJSA-1 cell growth in a cell viability assay.

| SMILES | IC50 |
| --- | --- |
| COc1cc2ncn(-c3cc(OCc4ccccc4S(C)(=O)=O)c(C#N)s3)c2cc1OC [GSK-319347A] | > 5 µM |

test system: SK-LMS-1; test: cells; type: functional, cell-based, Homo sapiens; details: Homo sapiens, SK-LMS-1;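 note: growth inhibition of human SK-LMS-1 cells, read out with a cell viability assay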
Description: SANGER: Inhibition of human SK-LMS-1 cell growth in a cell viability assay.

| SMILES | IC50 |
| --- | --- |
| COc1cc2ncn(-c3cc(OCc4ccccc4S(C)(=O)=O)c(C#N)s3)c2cc1OC [GSK-319347A] | > 5 µM |

test system: SK-MEL-2; test: cells; type: functional, cell-based, Homo sapiens; details: Homo sapiens, SK-MEL-2;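 note: growth inhibition of human SK-MEL-2 cells measured with a cell viability assay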
Description: SANGER: Inhibition of human SK-MEL-2 cell growth in a cell viability assay.

| SMILES | IC50 |
| --- | --- |
| COc1cc2ncn(-c3cc(OCc4ccccc4S(C)(=O)=O)c(C#N)s3)c2cc1OC [GSK-319347A] | > 5 µM |

test system: SK-PN-DW; test: cells; type: functional, cell-based, Homo sapiens; details: Homo sapiens, SK-PN-DW;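 note: growth inhibition measured with a viability assay on these cells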
Description: SANGER: Inhibition of human SK-PN-DW cell growth in a cell viability assay.

| SMILES | IC50 |
| --- | --- |
| COc1cc2ncn(-c3cc(OCc4ccccc4S(C)(=O)=O)c(C#N)s3)c2cc1OC [GSK-319347A] | > 5 µM |

test system: SW684; test: cells; type: functional, cell-based, Homo sapiens; details: Homo sapiens, SW684;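 note: growth inhibition of human SW684 cells, measured by a cell viability assay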
Description: SANGER: Inhibition of human SW684 cell growth in a cell viability assay.

| SMILES | IC50 |
| --- | --- |
| COc1cc2ncn(-c3cc(OCc4ccccc4S(C)(=O)=O)c(C#N)s3)c2cc1OC [GSK-319347A] | > 5 µM |

test system: A498; test: cells; type: functional, cell-based, Homo sapiens; details: Homo sapiens, A498;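 note: growth inhibition of human A498 cells, read out with a cell viability assay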
Description: SANGER: Inhibition of human A498 cell growth in a cell viability assay.

| SMILES | IC50 |
| --- | --- |
| COc1cc2ncn(-c3cc(OCc4ccccc4S(C)(=O)=O)c(C#N)s3)c2cc1OC [GSK-319347A] | > 5 µM |

test system: ACN; test: cells; type: functional, cell-based, Homo sapiens; details: Homo sapiens, ACN;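 note: growth inhibition of the human ACN cell line, read out via cell viability testing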
Description: SANGER: Inhibition of human ACN cell growth in a cell viability assay.

| SMILES | IC50 |
| --- | --- |
| COc1cc2ncn(-c3cc(OCc4ccccc4S(C)(=O)=O)c(C#N)s3)c2cc1OC [GSK-319347A] | > 5 µM |

test system: AM-38; test: cells; type: functional, cell-based, Homo sapiens; details: Homo sapiens, AM-38;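 note: growth inhibition of AM-38 cells of human origin, read out by a cell viability assay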
Description: SANGER: Inhibition of human AM-38 cell growth in a cell viability assay.

| SMILES | IC50 |
| --- | --- |
| COc1cc2ncn(-c3cc(OCc4ccccc4S(C)(=O)=O)c(C#N)s3)c2cc1OC [GSK-319347A] | > 5 µM |

test system: BT-474; test: cells; type: functional, cell-based, Homo sapiens; details: Homo sapiens, BT-474
Description: SANGER: Inhibition of human BT-474 cell growth in a cell viability assay.

| SMILES | IC50 |
| --- | --- |
| COc1cc2ncn(-c3cc(OCc4ccccc4S(C)(=O)=O)c(C#N)s3)c2cc1OC [GSK-319347A] | > 5 µM |

test system: Becker; test: cells; type: functional, cell-based, Homo sapiens; details: Homo sapiens, Becker;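 note: growth inhibition of Becker cells, read out with a cell viability assay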
Description: SANGER: Inhibition of human Becker cell growth in a cell viability assay.

| SMILES | IC50 |
| --- | --- |
| COc1cc2ncn(-c3cc(OCc4ccccc4S(C)(=O)=O)c(C#N)s3)c2cc1OC [GSK-319347A] | > 5 µM |

test system: C8166; test: cells; type: functional, cell-based, Homo sapiens; details: Homo sapiens, C8166;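 note: growth inhibition of human C8166 cells measured by a cell viability assay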
Description: SANGER: Inhibition of human C8166 cell growth in a cell viability assay.

| SMILES | IC50 |
| --- | --- |
| COc1cc2ncn(-c3cc(OCc4ccccc4S(C)(=O)=O)c(C#N)s3)c2cc1OC [GSK-319347A] | > 5 µM |

test system: TE-10; test: cells; type: functional, cell-based, Homo sapiens; details: Homo sapiens, TE-10;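 note: growth inhibition of TE-10 cells, measured by a cell viability assay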
Description: SANGER: Inhibition of human TE-10 cell growth in a cell viability assay.

| SMILES | IC50 |
| --- | --- |
| COc1cc2ncn(-c3cc(OCc4ccccc4S(C)(=O)=O)c(C#N)s3)c2cc1OC [GSK-319347A] | > 5 µM |

test system: TE-6; test: cells; type: functional, cell-based, Homo sapiens; details: Homo sapiens, TE-6;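 note: growth inhibition of TE-6 cells, read out with a cell viability assay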
Description: SANGER: Inhibition of human TE-6 cell growth in a cell viability assay.

| SMILES | IC50 |
| --- | --- |
| COc1cc2ncn(-c3cc(OCc4ccccc4S(C)(=O)=O)c(C#N)s3)c2cc1OC [GSK-319347A] | > 5 µM |

test system: TE-9; test: cells; type: functional, cell-based, Homo sapiens; details: Homo sapiens, TE-9;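 note: cell growth inhibition, measured with a cell viability readout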
Description: SANGER: Inhibition of human TE-9 cell growth in a cell viability assay.

| SMILES | IC50 |
| --- | --- |
| COc1cc2ncn(-c3cc(OCc4ccccc4S(C)(=O)=O)c(C#N)s3)c2cc1OC [GSK-319347A] | > 5 µM |

test system: U-87 MG; test: cells; type: functional, cell-based, Homo sapiens, U-87MG ATCC; details: Homo sapiens, U-87 MG;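 note: growth inhibition of the cells measured with a viability assay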
Description: SANGER: Inhibition of human U-87-MG cell growth in a cell viability assay.

| SMILES | IC50 |
| --- | --- |
| COc1cc2ncn(-c3cc(OCc4ccccc4S(C)(=O)=O)c(C#N)s3)c2cc1OC [GSK-319347A] | > 5 µM |

test system: UACC-257; test: cells; type: functional, cell-based, Homo sapiens; details: Homo sapiens, UACC-257
Description: SANGER: Inhibition of human UACC-257 cell growth in a cell viability assay.

| SMILES | IC50 |
| --- | --- |
| COc1cc2ncn(-c3cc(OCc4ccccc4S(C)(=O)=O)c(C#N)s3)c2cc1OC [GSK-319347A] | > 5 µM |
